Experimental data taken from patent US12227482B2, “Compounds and compositions for the treatment of cancer” (The Regents of the University of California, priority 2016, dated 2025).

What was measured:
Type in all cases: cell-based
[1] = test system: LOX cells; experiment: Cell viability (CellTiter-Glo ATP content) in LOX cells; conditions: LOX, 72 h, 72 hours treatment, cell survival by CellTiter-Glo, 2% fetal bovine serum
Procedure, shortened: (§1)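 Cells plated at 5,000 per well in antibiotic-free RPMI with 2% FBS, treated next day in triplicate with increasing compound doses (final DMSO 0.5%) for 72 hours. Viability read as ATP content by CellTiter-Glo luminescence; percent survival relative to vehicle control set as 100%.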

[2] = test system: MelJuSo cells; experiment: Cell viability (CellTiter-Glo ATP content) in MelJuSo cells; conditions: Homo sapiens, MEL-JUSO, 72 hours treatment, cell survival by CellTiter-Glo, 2% fetal bovine serum
Procedure, shortened: as §1

[3] = test system: A549 cells; experiment: Cell viability (CellTiter-Glo ATP content) in A549 cells; conditions: Homo sapiens, A549, 72 h, 72 hours treatment, cell survival by CellTiter-Glo, 2% fetal bovine serum
Procedure, shortened: as §1

| Structure (SMILES) | IC50 [1] [µM] | IC50 [2] [µM] | IC50 [3] [µM] |
| --- | --- | --- | --- |
| CN(C)CCNC(=O)CNC(=O)C1(C)C(c2cccs2)C(c2ccc(F)cc2)=NN1c1ccc(F)cc1F (stereo not drawn) [Compound 107, 1-(2,4-difluorophenyl)-N-(2-(2-(dimethylamino)ethylamino)-2-oxoethyl)-3-(4-fluorophenyl)-5-methyl-4-(thiophen-2-yl)-4,5-dihydro-1H-pyrazole-5-carboxamide] | > 2 | 1 to 2 | > 2 |
| CC1(C(=O)NCC(=O)NC2COC2)C(c2cccs2)C(c2ccc(F)cc2)=NN1c1ccc(F)cc1F (stereo not drawn) [Compound 108, 1-(2,4-difluorophenyl)-3-(4-fluorophenyl)-5-methyl-N-(2-(oxetan-3-ylamino)-2-oxoethyl)-4-(thiophen-2-yl)-4,5-dihydro-1H-pyrazole-5-carboxamide] | > 2 | > 2 | > 2 |
| CC1(C(=O)NCC(=O)NCCS(C)(=O)=O)C(c2cccs2)C(c2ccc(F)cc2)=NN1c1ccc(F)cc1F (stereo not drawn) [Compound 109, 1-(2,4-difluorophenyl)-3-(4-fluorophenyl)-5-methyl-N-(2-(2-(methylsulfonyl)ethylamino)-2-oxoethyl)-4-(thiophen-2-yl)-4,5-dihydro-1H-pyrazole-5-carboxamide] | > 2 | > 2 | > 2 |
| CC1(O)CC(NC(=O)CNC(=O)C2(C)C(c3cccs3)C(c3ccc(F)cc3)=NN2c2ccc(F)cc2F)C1 (stereo not drawn) [Compound 110, 1-(2,4-difluorophenyl)-3-(4-fluorophenyl)-N-(2-(3-hydroxy-3-methylcyclobutylamino)-2-oxoethyl)-5-methyl-4-(thiophen-2-yl)-4,5-dihydro-1H-pyrazole-5-carboxamide] | > 2 | > 2 | > 2 |
| CON(C)C(=O)CNC(=O)C1(C)C(c2cccs2)C(c2ccc(F)cc2)=NN1c1ccc(F)cc1F (stereo not drawn) [Compound 111, 1-(2,4-difluorophenyl)-3-(4-fluorophenyl)-N-(2-(methoxy(methyl)amino)-2-oxoethyl)-5-methyl-4-(thiophen-2-yl)-4,5-dihydro-1H-pyrazole-5-carboxamide] | > 2 | > 2 | > 2 |
| CC1(C(=O)NCC(=O)NCCO)C(c2cccs2)C(c2ccc(F)cc2)=NN1c1ccc(F)cc1F (stereo not drawn) [Compound 112, 1-(2,4-difluorophenyl)-3-(4-fluorophenyl)-N-(2-(2-hydroxyethylamino)-2-oxoethyl)-5-methyl-4-(thiophen-2-yl)-4,5-dihydro-1H-pyrazole-5-carboxamide] | > 2 | > 2 | > 2 |
| CCCCC1C(c2ccc(S(C)(=O)=O)cc2)=NN(c2ccc(F)cc2F)C1(C)C(=O)NCCCC(C)(C)CO (stereo not drawn) [Compound 113, 4-butyl-1-(2,4-difluorophenyl)-N-(5-hydroxy-4,4-dimethylpentyl)-5-methyl-3-(4-(methylsulfonyl)phenyl)-4,5-dihydro-1H-pyrazole-5-carboxamide] | > 2 | > 2 | > 2 |
| CCCCC1C(c2ccc(S(C)(=O)=O)cc2)=NN(c2ccc(F)cc2F)C1(C)C(=O)NCCOC (stereo not drawn) [Compound 114, 4-butyl-1-(2,4-difluorophenyl)-N-(2-methoxyethyl)-5-methyl-3-(4-(methylsulfonyl)phenyl)-4,5-dihydro-1H-pyrazole-5-carboxamide] | > 2 | > 2 | > 2 |
| CC(C)(CO)CCCNC(=O)C1(C)C(c2ccco2)C(c2ccc(F)cc2F)=NN1c1ccc(F)cc1F (stereo not drawn) [Compound 115, 1,3-bis(2,4-difluorophenyl)-4-(furan-2-yl)-N-(5-hydroxy-4,4-dimethylpentyl)-5-methyl-4,5-dihydro-1H-pyrazole-5-carboxamide] | 0.5 to 1 | 0.25 to 0.5 | 0.5 to 1 |
| COCCNC(=O)C1(C)C(c2ccco2)C(c2ccc(F)cc2F)=NN1c1ccc(F)cc1F (stereo not drawn) [Compound 116, 1,3-bis(2,4-difluorophenyl)-4-(furan-2-yl)-N-(2-methoxyethyl)-5-methyl-4,5-dihydro-1H-pyrazole-5-carboxamide] | < 0.25 | < 0.25 | 0.25 to 0.5 |
| CC(C)(CO)CCCNC(=O)C1(C)C(c2ccsc2)C(c2ccc(F)cc2F)=NN1c1ccc(F)cc1F (stereo not drawn) [Compound 117, 1,3-bis(2,4-difluorophenyl)-N-(5-hydroxy-4,4-dimethylpentyl)-5-methyl-4-(thiophen-3-yl)-4,5-dihydro-1H-pyrazole-5-carboxamide] | 0.5 to 1 | 0.25 to 0.5 | 0.5 to 1 |
| COCCNC(=O)C1(C)C(c2ccsc2)C(c2ccc(F)cc2F)=NN1c1ccc(F)cc1F (stereo not drawn) [Compound 118, 1,3-bis(2,4-difluorophenyl)-N-(2-methoxyethyl)-5-methyl-4-(thiophen-3-yl)-4,5-dihydro-1H-pyrazole-5-carboxamide] | < 0.25 | < 0.25 | < 0.25 |
| COC(=O)CNC(=O)C1(C)C(c2ccsc2)C(c2ccc(F)cc2F)=NN1c1ccc(F)cc1F (stereo not drawn) [Compound 119, methyl 2-(1,3-bis(2,4-difluorophenyl)-5-methyl-4-(thiophen-3-yl)-4,5-dihydro-1H-pyrazole-5-carboxamido)acetate] | 0.25 to 0.5 | < 0.25 | 0.5 to 1 |
| COCCNC(=O)C1(C)C(c2ccc(Cl)o2)C(c2ccc(F)cc2F)=NN1c1ccc(F)cc1F (stereo not drawn) [Compound 120, 4-(5-chlorofuran-2-yl)-1,3-bis(2,4-difluorophenyl)-N-(2-methoxyethyl)-5-methyl-4,5-dihydro-1H-pyrazole-5-carboxamide] | < 0.25 | < 0.25 | < 0.25 |
| COC(=O)CNC(=O)C1(C)C(c2ccc(Cl)o2)C(c2ccc(F)cc2F)=NN1c1ccc(F)cc1F (stereo not drawn) [Compound 121, methyl 2-(4-(5-chlorofuran-2-yl)-1,3-bis(2,4-difluorophenyl)-5-methyl-4,5-dihydro-1H-pyrazole-5-carboxamido)acetate] | < 0.25 | < 0.25 | < 0.25 |
| CC1(C(=O)NCCCN2CCOCC2)C(c2cccs2)C(c2ccc(F)cc2)=NN1c1ccc(F)cc1F (stereo not drawn) [Compound 122, 1-(2,4-difluorophenyl)-3-(4-fluorophenyl)-5-methyl-N-(3-morpholinopropyl)-4-(thiophen-2-yl)-4,5-dihydro-1H-pyrazole-5-carboxamide] | > 2 | > 2 | > 2 |
| CNC(=O)CNC(=O)C1(C)C(c2cccs2)C(c2ccc(F)cc2)=NN1c1ccc(F)cc1F (stereo not drawn) [Compound 123, 1-(2,4-difluorophenyl)-3-(4-fluorophenyl)-5-methyl-N-(2-(methylamino)-2-oxoethyl)-4-(thiophen-2-yl)-4,5-dihydro-1H-pyrazole-5-carboxamide] | > 2 | 1 to 2 | > 2 |
| CC1(C(=O)NCC(O)CCO)C(c2cccs2)C(c2ccc(F)cc2)=NN1c1ccc(F)cc1F (stereo not drawn) [Compound 124, 1-(2,4-difluorophenyl)-N-(2,4-dihydroxybutyl)-3-(4-fluorophenyl)-5-methyl-4-(thiophen-2-yl)-4,5-dihydro-1H-pyrazole-5-carboxamide] | > 2 | > 2 | > 2 |
| CC1(C(=O)NCCNC(=O)CCCCC2SC[C@@H]3NC(=O)N[C@H]23)C(c2cccs2)C(c2ccc(F)cc2)=NN1c1ccc(F)cc1F (stereo partly drawn) [Compound 125, 1-(2,4-difluorophenyl)-3-(4-fluorophenyl)-5-methyl-N-(2-(5-((3aS,6aR)-2-oxohexahydro-1H-thieno[3,4-d]imidazol-4-yl)pentanamido)ethyl)-4-(thiophen-2-yl)-4,5-dihydro-1H-pyrazole-5-carboxamide] | > 2 | > 2 | > 2 |
| CC1(C(=O)NCCN2CCOCC2)C(c2cccs2)C(c2ccc(F)cc2)=NN1c1ccc(F)cc1F (stereo not drawn) [Compound 126, 1-(2,4-difluorophenyl)-3-(4-fluorophenyl)-5-methyl-N-(2-morpholinoethyl)-4-(thiophen-2-yl)-4,5-dihydro-1H-pyrazole-5-carboxamide] | > 2 | > 2 | > 2 |
| CN1CCOC(CNC(=O)C2(C)C(c3cccs3)C(c3ccc(F)cc3)=NN2c2ccc(F)cc2F)C1 (stereo not drawn) [Compound 127, 1-(2,4-difluorophenyl)-3-(4-fluorophenyl)-5-methyl-N-((4-methylmorpholin-2-yl)methyl)-4-(thiophen-2-yl)-4,5-dihydro-1H-pyrazole-5-carboxamide] | 0.5 to 1 | < 0.25 | 0.5 to 1 |
| CC1(C(=O)NCC(=O)OCCO)C(c2cccs2)C(c2ccc(F)cc2)=NN1c1ccc(F)cc1F (stereo not drawn) [Compound 128, 2-hydroxyethyl 2-(1-(2,4-difluorophenyl)-3-(4-fluorophenyl)-5-methyl-4-(thiophen-2-yl)-4,5-dihydro-1H-pyrazole-5-carboxamido)acetate] | 0.5 to 1 | 0.25 to 0.5 | 0.5 to 1 |
| CC(C)(CO)CCCNC(=O)C1(C)C(c2ccoc2)C(c2ccc(F)cc2F)=NN1c1ccc(F)cc1F (stereo not drawn) [Compound 129, 1,3-bis(2,4-difluorophenyl)-4-(furan-3-yl)-N-(5-hydroxy-4,4-dimethylpentyl)-5-methyl-4,5-dihydro-1H-pyrazole-5-carboxamide] | 0.5 to 1 | 0.25 to 0.5 | 0.5 to 1 |
| COCCNC(=O)C1(C)C(c2ccoc2)C(c2ccc(F)cc2F)=NN1c1ccc(F)cc1F (stereo not drawn) [Compound 130, 1,3-bis(2,4-difluorophenyl)-4-(furan-3-yl)-N-(2-methoxyethyl)-5-methyl-4,5-dihydro-1H-pyrazole-5-carboxamide] | > 2 | 0.5 to 1 | > 2 |
